# Values quoted from earlier work in patent US6511968B1, “Combination therapy for treating, preventing, or reducing the risks associated with acute coronary ischemic syndrome and related conditions” (Merck & Co., Inc., priority 1998, dated 2003).
# Where a name gives a salt, the structure may show the parent alone. Where a SMILES comes first, the peptide text is derived from it. Bridges are numbered along the chain shown (N, C = ends). [ ]: non-standard residue; d: D form. hArg = N=C(N)NCCCC[C@H](N)C(=O)O; Mpa = O=C(O)CCS
# B1: c7E3 Fab: c7E3 Fab form of the 7E3 antibody (antibody, chains of the INN, looked up, V domains shown)
# VH: EVQLQQSGTVLARPGASVKMSCEASGYTFTNYWMHWVKQRPGQGLEWIGAIYPGNSDTSYIQKFKGKAKLTAVTSTTSVYMELSSLTNEDSAVYYCTLYDGYYVFAYWGQGTLVTVSA
# VL: EIVLTQSPVTLSVTPGDSVSLSCRASRDISNNLHWFQQTSHESPRLLIKYASQSMSGIPSRFSGSGSGTDFTLSINSVETEDFGMYFCQQTNSWPYTFGGGTKLEIK
# modifications: Fab
# notes: c7E3 Fab form of the 7E3 antibody
# How the values were obtained:
# GP IIb/IIIa = GP IIb/IIIa (Homo sapiens, UniProt P05106+P08514); conditions: for selectivity for GPIIb/IIIa: administered intravenously
# Chain of GP IIb/IIIa (P08514 32-887 limits assumed): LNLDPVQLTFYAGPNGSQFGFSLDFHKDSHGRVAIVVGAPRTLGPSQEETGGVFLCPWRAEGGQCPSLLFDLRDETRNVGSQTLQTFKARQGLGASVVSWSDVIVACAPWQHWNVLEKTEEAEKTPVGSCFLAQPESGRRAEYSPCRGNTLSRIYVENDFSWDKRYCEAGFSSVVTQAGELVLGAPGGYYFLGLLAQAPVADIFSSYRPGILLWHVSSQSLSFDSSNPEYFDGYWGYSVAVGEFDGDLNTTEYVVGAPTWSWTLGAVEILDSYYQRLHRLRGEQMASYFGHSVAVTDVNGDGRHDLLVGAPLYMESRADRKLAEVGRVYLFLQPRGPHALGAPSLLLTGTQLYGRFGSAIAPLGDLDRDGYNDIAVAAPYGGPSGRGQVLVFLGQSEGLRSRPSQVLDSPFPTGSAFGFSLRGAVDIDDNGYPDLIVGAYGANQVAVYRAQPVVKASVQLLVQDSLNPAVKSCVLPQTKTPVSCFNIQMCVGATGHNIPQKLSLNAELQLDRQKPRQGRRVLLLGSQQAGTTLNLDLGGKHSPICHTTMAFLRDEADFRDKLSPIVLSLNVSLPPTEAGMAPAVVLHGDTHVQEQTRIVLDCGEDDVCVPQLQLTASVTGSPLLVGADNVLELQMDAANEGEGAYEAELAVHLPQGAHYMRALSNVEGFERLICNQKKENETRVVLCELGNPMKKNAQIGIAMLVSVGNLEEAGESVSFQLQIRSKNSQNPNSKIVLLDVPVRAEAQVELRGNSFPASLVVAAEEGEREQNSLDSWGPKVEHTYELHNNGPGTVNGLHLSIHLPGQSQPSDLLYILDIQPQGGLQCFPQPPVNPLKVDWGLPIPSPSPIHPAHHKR
# Chain of GP IIb/IIIa (P08514 891-1039 partner limits assumed): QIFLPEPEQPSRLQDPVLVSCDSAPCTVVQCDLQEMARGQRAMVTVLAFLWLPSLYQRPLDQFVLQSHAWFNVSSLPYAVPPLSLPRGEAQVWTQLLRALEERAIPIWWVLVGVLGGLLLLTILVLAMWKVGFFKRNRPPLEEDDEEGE
# Chain of GP IIb/IIIa (P05106 27-788): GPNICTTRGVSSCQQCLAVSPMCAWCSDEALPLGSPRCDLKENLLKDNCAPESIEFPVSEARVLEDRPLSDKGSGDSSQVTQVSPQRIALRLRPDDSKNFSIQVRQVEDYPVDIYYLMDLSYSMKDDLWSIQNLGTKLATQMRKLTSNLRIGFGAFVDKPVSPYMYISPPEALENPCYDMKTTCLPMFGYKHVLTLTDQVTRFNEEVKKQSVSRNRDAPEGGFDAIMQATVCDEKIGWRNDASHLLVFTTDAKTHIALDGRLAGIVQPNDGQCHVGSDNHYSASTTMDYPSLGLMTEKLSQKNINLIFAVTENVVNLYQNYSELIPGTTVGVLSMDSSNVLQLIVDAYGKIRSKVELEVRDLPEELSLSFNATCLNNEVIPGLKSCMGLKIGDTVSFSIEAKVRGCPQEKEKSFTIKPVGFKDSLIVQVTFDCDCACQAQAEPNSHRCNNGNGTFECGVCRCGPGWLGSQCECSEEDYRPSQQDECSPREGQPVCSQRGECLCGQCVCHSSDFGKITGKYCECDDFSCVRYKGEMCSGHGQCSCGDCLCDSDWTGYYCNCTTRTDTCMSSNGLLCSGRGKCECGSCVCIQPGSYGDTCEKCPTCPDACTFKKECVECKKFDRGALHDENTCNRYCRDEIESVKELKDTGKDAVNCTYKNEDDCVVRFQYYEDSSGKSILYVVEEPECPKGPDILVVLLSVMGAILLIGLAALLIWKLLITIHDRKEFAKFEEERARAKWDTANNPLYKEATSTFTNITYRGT
# αvβ3 = αvβ3 (Homo sapiens, UniProt P05106+P06756)
# Chain of αvβ3 (P06756 31-889 limits assumed): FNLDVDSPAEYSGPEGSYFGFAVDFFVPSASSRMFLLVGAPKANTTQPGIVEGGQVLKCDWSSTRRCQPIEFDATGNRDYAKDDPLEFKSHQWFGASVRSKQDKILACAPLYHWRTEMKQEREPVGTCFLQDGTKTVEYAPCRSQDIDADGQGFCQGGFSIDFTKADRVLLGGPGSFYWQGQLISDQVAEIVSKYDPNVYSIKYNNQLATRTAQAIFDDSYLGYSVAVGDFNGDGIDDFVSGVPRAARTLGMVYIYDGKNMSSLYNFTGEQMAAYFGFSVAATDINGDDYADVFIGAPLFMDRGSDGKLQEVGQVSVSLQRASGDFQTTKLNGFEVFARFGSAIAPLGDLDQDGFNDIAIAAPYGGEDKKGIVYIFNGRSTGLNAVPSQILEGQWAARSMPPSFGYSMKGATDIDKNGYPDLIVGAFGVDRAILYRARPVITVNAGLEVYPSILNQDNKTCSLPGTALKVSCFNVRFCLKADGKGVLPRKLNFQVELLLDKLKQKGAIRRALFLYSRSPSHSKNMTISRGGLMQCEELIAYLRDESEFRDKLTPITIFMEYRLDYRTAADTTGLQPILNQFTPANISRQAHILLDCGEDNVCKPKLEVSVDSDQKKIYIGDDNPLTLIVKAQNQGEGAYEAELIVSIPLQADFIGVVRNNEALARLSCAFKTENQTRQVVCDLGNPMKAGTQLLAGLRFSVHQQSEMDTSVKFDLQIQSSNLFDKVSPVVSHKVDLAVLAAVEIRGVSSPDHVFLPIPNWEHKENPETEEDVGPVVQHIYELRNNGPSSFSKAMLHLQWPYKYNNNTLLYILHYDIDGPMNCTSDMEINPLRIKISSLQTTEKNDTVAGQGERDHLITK
# Chain of αvβ3 (P06756 891-1048 partner limits assumed): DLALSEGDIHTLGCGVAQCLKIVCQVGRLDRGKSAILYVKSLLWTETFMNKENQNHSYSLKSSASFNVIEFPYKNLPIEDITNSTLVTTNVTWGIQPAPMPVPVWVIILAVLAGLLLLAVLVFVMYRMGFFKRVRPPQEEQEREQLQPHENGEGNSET
# Chain of αvβ3 (P05106 27-788): as the sequence (P05106 27-788) above
# [1] = prodrug
# platelet aggregation = conditions: increasing concentrations added to platelet-rich plasma in vitro or incremental doses in vivo
molecule,measurement,setting,value
N=C(N)NCCCC[C@@H]1NC(=O)CCSSC[C@@H](C(N)=O)NC(=O)[C@@H]2CCCN2C(=O)[C@H](Cc2c[nH]c3ccccc23)NC(=O)[C@H](CC(=O)O)NC(=O)CNC1=O [Integrelin] ([Mpa][hArg]GDWPC-NH2; disulfide 1-7),inhibition of ligand binding to GP IIb/IIIa / receptor blockade,GP IIb/IIIa,inhibits ligand binding to GP IIb/IIIa
same,effect on ligand binding to αvβ3 / receptor blockade,αvβ3,very little effect
"CCCCS(=O)(=O)N[C@@H](Cc1ccc(OCCCCC2CCNCC2)cc1)C(=O)O [MK-383, 2-S-(n-Butylsulfonylamino)-3[4-piperidin-4-yl)butyloxyphenyl]propionic acid hydrochloride]",selectivity for GPIIb/IIIa,GP IIb/IIIa,selective for GPIIb/IIIa
N=C(N)c1ccc(C(=O)N[C@@H](Cc2ccc(O)cc2)C(=O)N2CCC(OCC(=O)O)CC2)cc1 [Ro 44-9883],selectivity for GPIIb/IIIa,GP IIb/IIIa,selective for GPIIb/IIIa
"C#C[C@H](CC(=O)OCC)NC(=O)CCC(=O)Nc1ccc(C(=N)N)cc1 [SC54684, ethyl 3-[[4-[[4-(aminoiminomethyl)phenyl]amino]-1,4-dioxobutyl]amino]-4-pentynoate]",oral bioavailability,[1],high oral bioavailability
B1,platelet aggregation,platelet aggregation,profoundly inhibited
